These results are taken from patent US12673074B2, “Mycobacterium for use in cancer therapy” (TONRON INTERNATIONAL LIMITED, priority 2020, dated 2026).

Assay [1] concerns advanced pancreatic cancer. To be noted: phase II trial, metastatic pancreatic cancer patients; gemcitabine therapy with or without addition of IMM-101 (background); cited from earlier work.
Assay [2] relates to advanced pancreatic cancer. The assay can be described thus: Randomised, open-label, phase II study of gemcitabine with and without IMM-101 (IMAGE 1). It counts as in vivo, human. An excerpt: This study is described in U.S. Pat. No. 8,617,520 assigned to the applicant, and the results were published by Dalgeish et al, in the paper entitled “Randomised, open-label, phase II study of gemcitabine with and without IMM-101 for advanced pancreatic cancer”. [Br. J. Cancer. 2016 Sep. 27; 115(7): 789-796] and also as “Long term survival in IMAGE 1 (Immune Modulation And Gemcitabine Evaluation 1), a randomized, open-label phase II trial comparing gemcitabine with and without IMM-101 in advanced pancreatic cancer”; Angus George Dalgleish and The IMAGE 1 Trial Investigators; Journal of Clinical Oncology 2015 33:15_suppl, 3051-3051.
In summary, this study compared, in patients with advanced pancreatic cancer, the effects of gemcitabine (GEM) in combination with IMM-101 (a suspension of heat-killed whole cell M. obuense in borate-buffered saline) to gemcitabine alone on: Safety and tolerability, including QoL; clinical signs and symptoms of disease; Overall survival (OS), progression-free survival (PFS), and overall response rate (ORR; Selected markers of tumour burden and immunological status
Disease outcome—patients, who provided informed consent, participated in a screening period of up to 28 days to establish eligibility. […]

Each structure is given as a SMILES string.

Consider `Nc1ccn([C@@H]2O[C@H](CO)[C@@H](O)C2(F)F)c(=O)n1` [GEM, gemcitabine], for which the overall survival in assay [1] was 4.4 months. The “patients with BOR of PD” value in assay [2] (PS2 patients) worked out at 2 patients. The OS in assay [2] (pre-defined metastatic subgroup (84%)) worked out at 4.4 months.
